# PubChem BioAssay AID1963967 (Molecular Pharmacology Branch, DTP, NCI, 2024)
# System: 855422-203-R-J1-PDC spheroids with HUVEC/MSC, viability
# Experiment: Anticancer human tumor 855422-203-R-J1-PDC patient-derived bladder carcinoma cell line growth inhibition [PI3K]
# Details: for IC50: curve of first compound; for viability, T/C: stronger effect = lower value
# Procedure, shortened: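 We assembled tumor spheroids that included a stromal compartment of HUVEC and MSCs, then exposed them to targeted agents alone and together with PI3K pathway inhibitors. Concentration series descended by half-log from clinically achievable Cmax levels. Viability served as the endpoint.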
# 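Also: agents incubated with spheroids for one week before read-out.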
# 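For viability, T/C in this document: 100% = DMSO vehicle-treated control wells.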
compound,measurement,setting,value
CC1(C)CCC(CN2CCN(c3ccc(C(=O)NS(=O)(=O)c4ccc(NCC5CCOCC5)c([N+](=O)[O-])c4)c(Oc4cnc5[nH]ccc5c4)c3)CC2)=C(c2ccc(Cl)cc2)C1 + COc1c(OCCCN2CCOCC2)ccc2c3n(c(=NC(=O)c4cnc(N)nc4)nc12)CCN3,IC50,second compound 0.00316 µM,5.28 µM
same,IC50,second compound 0.01 µM,5.04 µM
same,IC50,second compound 0.0316 µM,4.6 µM
same,IC50,second compound 0.1 µM,< 0.0316 µM
same,IC50,second compound 0.316 µM,< 0.0316 µM
same,IC50,second compound 1 µM,< 0.0316 µM
same,"viability, T/C","second compound 0.00316 µM, first compound 0.0316 µM",98.5%
same,"viability, T/C","second compound 0.00316 µM, first compound 0.1 µM",80.8%
same,"viability, T/C","second compound 0.00316 µM, first compound 0.316 µM",99.5%
same,"viability, T/C","second compound 0.00316 µM, first compound 1 µM",87.2%
same,"viability, T/C","second compound 0.00316 µM, first compound 3.16 µM",88.1%
same,"viability, T/C","second compound 0.00316 µM, first compound 10 µM",2.53%
same,"viability, T/C","second compound 0.01 µM, first compound 0.0316 µM",91%
same,"viability, T/C","second compound 0.01 µM, first compound 0.1 µM",77.5%
same,"viability, T/C","second compound 0.01 µM, first compound 0.316 µM",78.3%
same,"viability, T/C","second compound 0.01 µM, first compound 1 µM",76.4%
same,"viability, T/C","second compound 0.01 µM, first compound 3.16 µM",90.8%
same,"viability, T/C","second compound 0.01 µM, first compound 10 µM",1.94%
same,"viability, T/C","second compound 0.0316 µM, first compound 0.0316 µM",62.5%
same,"viability, T/C","second compound 0.0316 µM, first compound 0.1 µM",65.3%
same,"viability, T/C","second compound 0.0316 µM, first compound 0.316 µM",73.7%
same,"viability, T/C","second compound 0.0316 µM, first compound 1 µM",78.2%
same,"viability, T/C","second compound 0.0316 µM, first compound 3.16 µM",87.3%
same,"viability, T/C","second compound 0.0316 µM, first compound 10 µM",1.43%
same,"viability, T/C","second compound 0.1 µM, first compound 0.0316 µM",29.7%
same,"viability, T/C","second compound 0.1 µM, first compound 0.1 µM",30.3%
same,"viability, T/C","second compound 0.1 µM, first compound 0.316 µM",30.6%
same,"viability, T/C","second compound 0.1 µM, first compound 1 µM",33.5%
same,"viability, T/C","second compound 0.1 µM, first compound 3.16 µM",31.8%
same,"viability, T/C","second compound 0.1 µM, first compound 10 µM",1.14%
same,"viability, T/C","second compound 0.316 µM, first compound 0.0316 µM",12.1%
same,"viability, T/C","second compound 0.316 µM, first compound 0.1 µM",9.95%
same,"viability, T/C","second compound 0.316 µM, first compound 0.316 µM",12.7%
same,"viability, T/C","second compound 0.316 µM, first compound 1 µM",9.33%
same,"viability, T/C","second compound 0.316 µM, first compound 3.16 µM",9.24%
same,"viability, T/C","second compound 0.316 µM, first compound 10 µM",0.68%
same,"viability, T/C","second compound 1 µM, first compound 0.0316 µM",3.97%
same,"viability, T/C","second compound 1 µM, first compound 0.1 µM",5.15%
same,"viability, T/C","second compound 1 µM, first compound 0.316 µM",4.27%
same,"viability, T/C","second compound 1 µM, first compound 1 µM",5.32%
same,"viability, T/C","second compound 1 µM, first compound 3.16 µM",4.63%
same,"viability, T/C","second compound 1 µM, first compound 10 µM",1.04%
